From patent US20060040909A1, “Selenophene compounds” (DEVELOPMENT CENTER FOR BIOTECHNOLOGY, priority 2004, published 2006) come the findings set out here.

The assay has as its system Hep-3B liver cancer cells. Nature of the assay: In vivo assay, Hep-3B cells transplanted subcutaneously into athymic mice. As to conditions: intraperitoneally, once every two days, 14th day, vs control group. As to the method:
Compound 3 was tested for its efficacy against Hep-3B liver cancer cells implanted in mice of two treated groups at a […] dosage of 50 mg/kg and 75 mg/kg. In a control group, mice bearing Hep-3B liver cancer cells were not treated with any test compound. Male athymic mice (Ncr nu/nu) of 4-6 weeks of age and weighing 20-25 g were used. Mice were housed in cages in ventilated cabinets and provided sterilized pellet diet and sterile water ad libitum. The temperature was kept between 23-25° C. and a humidity of about 50±10%. Light of the housing area was on a 12-hour light/dark cycle. All experimentation was performed under the IACUC guidelines adopted by the Development Center for Biotechnology, Taiwan. Hep-3B cells were transplanted subcutaneously into athymic mice. In the treated groups, when the tumor reached a volume of about 50 mm^3, mice were treated with compound 3 at a dosage of 50 mg/kg or 75 mg/kg once every two days for three times. The treated groups and the control group each had 7 mice. Compound 3 was administered intraperitoneally. The sizes of tumors were measured using a caliper at least twice a week and the tumor volume (TV) was calculated. Body weights were also monitored along with tumor volume measurement. The percentage of tumor growth was determined by dividing the mean TV of the treated group by the mean TV of a control group.

Molecules are shown by their SMILES.

Turning to `Cn1c(-c2ccc(CO)[se]2)cc(CO)c1-c1ccc(CO)[se]1` [Compound 3], the “mean TV (tumor volume) reduced” value runs as follows: (three doses of 50 mg/kg) 37%; (three doses of 75 mg/kg) 63%.
